Patent US5874592A, “Physiologically active substance EI-2128-1” (Kyowa Hakko Kogyo Co., Ltd., priority 1996, dated 1999)
pIC50: −log10 of the molar value. Converted amounts (≈) assume the structure as drawn.

Experiments:
[1] = Solubility; type: physicochemical; conditions: methanol, acetonitrile, and chloroform
[2] = tested on: Bacillus subtilis No. 10707; assay: Antibacterial activity, agar dilution method; type: cell-based; conditions: Bacillus subtilis No. 10707, agar dilution, pH 7.0
[3] = tested on: Klebsiella pneumoniae subsp. pneumoniae ATCC 10031; assay: Antibacterial activity, agar dilution method; type: cell-based; conditions: ATCC10031; Klebsiella pneumoniae subsp. pneumoniae ATCC 10031, agar dilution, pH 7.0
[4] = tested on: Proteus vulgaris ATCC 6897; assay: Antibacterial activity, agar dilution method; type: cell-based; conditions: ATCC6897; Proteus vulgaris ATCC 6897, agar dilution, pH 7.0
[5] = tested on: Enterococcus hirae ATCC 10541; assay: Antibacterial activity, agar dilution method; type: cell-based; conditions: ATCC10541; Enterococcus hirae ATCC 10541, agar dilution, pH 7.0
[6] = tested on: production of IL-1β by human monocyte-derived THP-1 cells; assay: Inhibitory activity against the production of IL-1β by LPS-stimulated THP-1 cells (ELISA); type: cell-based; conditions: LPS 25 μg/ml, 4 hours, PMA-differentiated THP-1 cells, read-out: 50% inhibitory concentration against the IL-1 production by THP-1 cells stimulated by LPS
Procedure: The inhibitory activity of the compound of the present invention, EI-2128-1, against the production of IL-1β by human monocyte-derived THP-1 cells (ATCC No. TIB 202) was examined in the following manner. The amount of IL-1β was determined by the ELISA method.
THP-1 cells were suspended in RPMI1640 medium (Nissui Pharmaceutical Co., Ltd.) containing 10% inactivated fetal calf serum at a concentration of 1×10^5 cells/ml. The cell suspension was put into wells of a 24-well plate in an amount of 1 ml/well. Phorbol 12-myristate 13-acetate (PMA, final concentration: 30 nM) was added to the wells, followed by incubation in a 5% CO2 -incubator at 37° C. for 65 hours to differentiate the cells into macrophage.
Then, the plate was gently washed with serum-free RPMI1640 medium to remove the cells which were not adhered to the wells, and the residue was cultured for 4 hours in serum-free RPMI1640 medium (1 ml/well) containing lipopolysaccharide (LPS, final concentration: 25 μg/ml) and the test compound (final concentration: 0.05-50 μg/ml).
After the completion of culturing, the amount of IL-1β released into the culture supernatant was determined by using an IL-1β determination kit (Amersham Corp.).
The IL-1 production inhibition rate was calculated according to the following equation to obtain IC50 (50% inhibitory concentration).
IL-1 production inhibition rate (%)=(A-B)/(A-C)×100 […]

[7] = tested on: Staphylococcus aureus subsp. aureus ATCC 6538P; assay: Antibacterial activity, agar dilution method; type: cell-based; conditions: ATCC6538P, pH 7.0
[8] = tested on: Candida albicans ATCC 10231; assay: Antibacterial activity, agar dilution method; type: cell-based; conditions: ATCC10231; Candida albicans ATCC 10231, agar dilution, pH 7.0

CCCCCCC(C)CC(C)/C=C/C(=O)NC1CC2(OC1O)C1OC1C(=O)C1OC12 (centres unmarked) [EI-2128-1]
Solubility [1]: Readily soluble in methanol, acetonitrile, and chloroform | MIC [2]: 0.16 µg/mL (≈ 0.38 µM) | MIC [3]: 21 µg/mL (≈ 49.8 µM) | MIC [4]: 42 µg/mL (≈ 99.6 µM) | MIC [5]: 0.33 µg/mL (≈ 0.783 µM) | pIC50 [6]: 7.00 | MIC [7]: 0.33 µg/mL (≈ 0.783 µM) | MIC [8]: 42 µg/mL (≈ 99.6 µM)
